According to ChEMBL document CHEMBL5126665, “A Dimerosesquiterpene and Sesquiterpene Lactones from Artemisia argyi Inhibiting Oncogenic PI3K/AKT Signaling in Melanoma Cells” (J Nat Prod, 2022):
Active and inactive are the calls of the source. The rule behind the calls is not given here.

Experiments:
Assay type in all cases: cell-based
[1] = Inhibition of PI3K/AKT signalling pathway in human MM121224 cells stably expressing H2B-mTurquoise, ERK-KTR-mScarlet and FoxO3a-KTR-mNeonGreen fluorophore assessed as AKT activity by high-content screening microscopic analysis
MM121224 [2] = experiment: Inhibition of PI3K/AKT signalling pathway in human MM121224 cells assessed as downregulation of AKT phosphorylation at Ser473 residue by immunostaining based analysis
MM121224 [3] = experiment: Inhibition of PI3K/AKT signalling pathway in human MM121224 cells stably expressing H2B-mTurquoise, ERK-KTR-mScarlet and FoxO3a-KTR-mNeonGreen fluorophore assessed as AKT activity at 25 uM by high-content screening microscopic analysis
[4] = Toxicity against human MM121224 cells at 50 to 200 uM by high-content screening microscopic analysis; conditions: mm121224, 200 µM, dose 50-200 µM

| SMILES | IC50 [1] | also measured |
| --- | --- | --- |
| C=C1C(=O)O[C@@H]2[C@H]3C(C)=CC(=O)C3=C(C)C[C@H](OC(=O)C(C)CC)[C@@H]12 (stereo partly specified) | 27.7 µM | – |
| C=C1C(=O)O[C@H]2[C@H]1CC[C@@](C)(O)[C@@]13O[C@@H]1[C@@H]1O[C@]1(C)[C@H]23 | 38.4 µM | – |
| C=C1C(=O)O[C@@H]2[C@H]3C(C)=CC(=O)C3=C(C)C[C@H](OC(=O)/C(C)=C\C)[C@@H]12 | 9.8 µM | – |
| C=C1C(=O)O[C@@H]2C3=C(C)C(=O)C[C@@H](O)[C@]3(C)CC[C@@H]12 | 11.2 µM | inhibition (MM121224 [2]): Active |
| C=C1C(=O)O[C@H]2[C@H]1[C@@H](OC(=O)CC(C)C)CC(C)=C1C[C@H]3O[C@@]3(C)[C@@H]12 | 16.9 µM | – |
| C=C1C(=O)O[C@H]2[C@H]1CC[C@@](C)(O)[C@]13O[C@H]1[C@H]1O[C@@]1(C)[C@H]23 [ARTECANIN] | 119 µM | – |
| C=C1C(=O)O[C@H]2[C@H]1CC[C@@](C)(O)[C@@]13C=C[C@](C)([C@H]4[C@H](CC(=O)OC)[C@H](C/C=C\CC)C(=O)[C@H]41)[C@H]23 | 27.7 µM | inhibition (MM121224 [2]): Active |
| C=C1C(=O)O[C@H]([C@@H]2C(=O)C=C[C@]2(C)O)[C@H]1CCC(C)=O [SECOTANAPARTHOLIDE B] | 22.5 µM | – |
| C=C1C(=O)O[C@H]2[C@H]1[C@@H](OC(=O)CC(C)C)C=C(C)[C@]1(O)C[C@@H](O)[C@@](C)(O)[C@H]21 | 27.9 µM | – |
| C=C1C(=O)O[C@H]2[C@H]1[C@@H](OC(C)=O)C=C(C)[C@]1(O)C[C@H]3O[C@@]3(C)[C@H]21 | 22.9 µM | – |
| C=C1C(=O)O[C@H]2[C@H]1[C@@H](OC(C)=O)CC(=C)[C@]1(O)C[C@H]3O[C@@]3(C)[C@H]21 | 46.2 µM | – |
| C=C1C(=O)O[C@H](C2=C(C)[C@H](OC(C)=O)CC2=O)[C@H]1CCC(C)=O | 25.1 µM | inhibition (MM121224 [2]): Active |
| C=C1C(=O)O[C@H]2[C@H]1[C@@H](OC(=O)CC(C)C)CC(=C)[C@]1(O)C[C@H]3O[C@@]3(C)[C@H]21 | 14.2 µM | – |
| C=C1C(=O)O[C@@H]2[C@H]3C(C)=CC(=O)C3=C(C)C[C@H](OC(=O)C=C(C)C)[C@@H]12 | 8.9 µM | inhibition (MM121224 [2]): Active; inhibition (MM121224 [3]): Active; Activity [4]: Toxic |
| C=C1C(=O)O[C@@H]2[C@H]3C(C)=CC(=O)C3=C(C)C[C@H](OC(C)=O)[C@@H]12 | 11 µM | – |
| C=C1C(=O)O[C@@H]2[C@H]3C(C)=CC(=O)C3=C(C)C[C@H](OC(=O)CC(C)C)[C@@H]12 | 15.3 µM | – |
| C=C1C(=O)O[C@@H]2[C@@H]3[C@@]4(C=C[C@@]3(C)[C@@]3(C4)C(=O)O[C@@H]4[C@H]5C(C)=CC(=O)C5=C(C)C[C@H](OC(C)=O)[C@H]43)[C@](C)(O)CC[C@@H]12 | 14.7 µM | – |
| C=C1C(=O)O[C@H]([C@H]2C(=O)C=C[C@@]2(C)O)[C@H]1CCC(C)=O | 38 µM | – |
| C=C1C(=O)O[C@@H]2[C@H]3C(C)=CC[C@@H](O)[C@]3(C)CC[C@@H]12 [SANTAMARIN] | 52.7 µM | – |
| C=C1C(=O)O[C@@H]2[C@H]3C(C)=CC(=O)C3=C(C)C[C@H](O)[C@@H]12 | 15.1 µM | inhibition (MM121224 [2]): Active |
| C=C1C(=O)O[C@@H]2[C@@H]3[C@@]4(C=C[C@@]3(C)[C@]3(C4)C(=O)O[C@@H]4[C@H]5C(C)=CC(=O)C5=C(C)C[C@H](OC(C)=O)[C@H]43)[C@](C)(O)CC[C@@H]12 | 35.7 µM | inhibition (MM121224 [2]): Active |
| C=C1C(=O)O[C@H]2[C@H]1[C@@H](OC(C)=O)CC(C)=C1C[C@H]3O[C@@]3(C)[C@@H]12 | 25.9 µM | – |
| C=C1C(=O)O[C@H]2[C@H]1[C@@H](OC(=O)C(C)CC)C=C(C)[C@]1(O)C[C@@H](O)[C@@](C)(O)[C@H]21 (stereo partly specified) | 24.6 µM | – |
| C=C1C(=O)O[C@H]2[C@H]1[C@@H](OC(=O)C(C)CC)CC(=C)[C@]1(O)C[C@H]3O[C@@]3(C)[C@H]21 (stereo partly specified) | 14.2 µM | – |
| C=C1C(=O)O[C@@H]2[C@H]3C(C)=CC(=O)C3=C(C)CC[C@@H]12 [DEHYDROLEUCODIN] | 23.6 µM | – |
| C=C1C(=O)O[C@H]2[C@H]1CC[C@@](C)(O)[C@]13C=C[C@@](C)([C@H]21)[C@@]1(C3)C(=O)C[C@]2(C(C)C)C[C@@H]21 | 26.5 µM | – |
| C=C(C(=O)OC)[C@@H]1CC[C@]2(C)C(=C(C)C(=O)C[C@H]2O)[C@H]1O | 22.1 µM | inhibition (MM121224 [2]): Active |
